4 compounds from US20160184254A1, “COMPOSITIONS COMPRISING VITAMIN K DERIVATIVES AND SALTS” (KAPPA BIOSCIENCE AS, priority 2013, published 2016) can be followed below.

Data set [1] in a line: Light stability in ethyl acetate (HPLC % area). The conditions noted are these: for After 19 hrs % / Initial %: clear glass vial; for After 19 hrs %: 19 hours ordinary room lighting, HPLC % area; for Initial %: before light exposure, HPLC % area of total peak area. The class given is physicochemical. On the procedure:
(§1) The light stability of MK-7 was compared to compounds of the invention as hereinbefore described. Compounds were dissolved separately in ethyl acetate or MCT oil, transferred to glass vial (clear glass) and placed on the bench in a well lit laboratory (ordinary room lighting). The samples were analyzed after 19 hours of light exposure or more.
(§2) The samples were analyzed by HPLC using aHPLC_KB_001, with the HPLC conditions detailed below. • HPLC-DAD high pressure system: Agilent, LC system 1100 series • Analytical column: Supelcosil C-18, 4.6×250 mm, 5 μm • Column temperature: 40° C. • Flow rate: 1 mL/min • Injection volume: 8 μL • UV-detection: 270 nm/340 nm • Run time: 20 min • Eluent system: 50% Solvent C: MeOH/Water with 0.1% v/v acetic acid (95/5 v/v) 50% Solvent D: Isopropanol
(§3) The content of MK-7 and the MK-7 derivative in the samples have been quantified as % area of the total peak area in the chromatogram. […] Note that examples 2a and 2b show the synergistic behaviour discussed after table 2.

Data set [2] is described as follows: In vivo testing in rats: MK-7 in plasma after oral gavage. Details: species or system male Sprague Dawley Rats. On the procedure: Male Rats aged 6 to 8 weeks and weighing around 180 to 225 g. Animals were fasted overnight with free access to water. Animals were administered test substance by oral gavage with a dose of 100 μg/kg body weight (in recommended formulation and dose volume). Blood samples (150-200 μl) were collected at various time points during the next 48 hours post dose. To determine the bioavailability of different formulations containing MK-7 in male e Sprague Dawley Rats through gavage. Formulations were both dissolved in sunflower oil. Approximately 0.4 ml/animal (depending on the weight of the animal) via oral gavage (100 μg/kg body weight). There were 6 animals per formulation. Blood samples were collected from the tail vein of each animal and transferred into lithium heparin tubes at 2 and 12 hours post dose. Quantification of analyte in plasma was determined by LC-MS-MS analysis: Analyte: MK-7 in plasma. The data are mean of four measurements (low and high values are not included).

Data set [3] is described as follows: Calcium salt composition: recovery from tablet after direct compression. The class given is physicochemical. The conditions noted are these: for compatibility with calcium in the formulation process: formulated together with calcium salts; for recovered from the tablet after formulation: magnesium stearate, MCC, compared to amount pre-formulation. On the procedure:
We combined 47 mg of a 0.19 wt % formulation of the MK-7 derivative of Example 16 (diacetate) in microcrystalline cellulose MCC with 645 mg of 90 wt % calcium carbonate, […] of magnesium stearate and 745 mg of MCC and formulated tablets of this blend using direct compression.
After formulation we recovered the MK-7 derivative from the tablet. We recovered 88 wt % of the derivative from the tablet.
The same experiment was repeated using identical conditions other than the use of MK-7 rather than the MK-7 derivative. We recovered 77.6 wt % of MK7 from the tablet compared to the amount pre-formulation. We show therefore that the loss of MK7 during tableting process is 23%.

A short description of data set [4]: Light stability in MCT oil (HPLC % area). The format is physicochemical. The conditions noted are these: 24 hours light exposure. The protocol:
as §1, §2, §3

The mark [5] stands for this setting: tablet with calcium carbonate, direct compression.

In the case of `CC(C)=CCC/C(C)=C/CC/C(C)=C/CC/C(C)=C/CC/C(C)=C/CC/C(C)=C/CC/C(C)=C/Cc1c(C)c(OC(=O)c2ccccc2)c2ccccc2c1OC(=O)c1ccccc1` [Example 1, 2-((2E,6E,10E,14E,18E,22E)-3,7,11,15,19,23,27-heptamethyl-octacosa-2,6,10,14,18,22,26-heptaen-1-yl)-3-methylnaphthalene-1,4-diyl dibenzoate], in data set [1] (in ethyl acetate), the “After 19 hrs %” value stood at 95.4% and the Initial % amounted to 98.5%.

For `CCC(=O)Oc1c(C)c(C/C=C(\C)CC/C=C(\C)CC/C=C(\C)CC/C=C(\C)CC/C=C(\C)CC/C=C(\C)CCC=C(C)C)c(OC(=O)CC)c2ccccc12` [Example 7, 2-((2E,6E,10E,14E,18E,22E)-3,7,11,15,19,23,27-heptamethyloctacosa-2,6,10,14,18,22,26-heptaen-1-yl)-3-methylnaphthalene-1,4-diyl dipropionate], the “serum level 12 hours after administration compared with MK-7” value in data set [2] was “the same”.

For `CC(=O)Oc1c(C)c(C/C=C(\C)CC/C=C(\C)CC/C=C(\C)CC/C=C(\C)CC/C=C(\C)CC/C=C(\C)CCC=C(C)C)c(OC(C)=O)c2ccccc12` [Example 16], in data set [1] (in ethyl acetate), the “After 19 hrs %” value was 92.7% and the Initial % stood at 93.1%. Further, in data set [3], the “compatibility with calcium in the formulation process” value (shortened to “compatibility with calcium”) is given as “more compatible with calcium than MK7”. Also, the “recovered from the tablet after formulation” value in data set [3] (setting [5]) worked out at 88 wt %.

As to `CC(C)=CCC/C(C)=C/CC/C(C)=C/CC/C(C)=C/CC/C(C)=C/CC/C(C)=C/CC/C(C)=C/CC1=C(C)C(=O)c2ccccc2C1=O` [MK-7, 2-((2E,6E,10E,14E,18E,22E)-3,7,11,15,19,23,27-Heptamethyloctacosa-2,6,10,14,18,22,26-heptaen-1-yl)-3-methylnaphthalene-1,4-dione], in data set [1] (in ethyl acetate), the “light degradation in ethyl acetate compared with MCT oil” value was “degrades even more rapidly”, the “After 19 hrs %” value stood at 53.7% and the Initial % was found to be 99.4%. The “degradation after 19 hours of light exposure” value in data set [1] (in solution (ethyl acetate, Table 1), 19 hours light exposure) is listed as “approximately 50%”. Moreover, the “degradation after 24 hours of light exposure” value in data set [4] is reported as “approximately 70%”. Moreover, the “reduction in the amount present after tabletting” value in data set [3] (directly compressed with excipients such as calcium or magnesium) is reported as “up to 30%”. Moreover, in data set [3], the “compatibility with calcium” value is recorded as “degrades rapidly”. Moreover, in data set [3] (listed as MK7), the “compatibility with calcium” value was “degrades in the formulation process together with calcium”. Also, in data set [3] (setting [5]), the “loss during tableting process” value amounted to 23% and the “recovered from the tablet after formulation” value amounted to 77.6 wt %.
